Data taken from ChEMBL document CHEMBL5360638, “Development of an Affinity-Based Probe to Profile Endogenous Human Adenosine A3 Receptor Expression” (J Med Chem, 2023).
Active and inactive are the calls of the source. No cut-off for these calls is given here.

Experiments:
[1] = target: T1, Adenosine receptor A3 (Homo sapiens) (UniProt P0DMS8); assay: Binding affinity to human A3AR at 50 nM incubated for 1 hr by SDS-PAGE analysis
T1 sequence (whole entry): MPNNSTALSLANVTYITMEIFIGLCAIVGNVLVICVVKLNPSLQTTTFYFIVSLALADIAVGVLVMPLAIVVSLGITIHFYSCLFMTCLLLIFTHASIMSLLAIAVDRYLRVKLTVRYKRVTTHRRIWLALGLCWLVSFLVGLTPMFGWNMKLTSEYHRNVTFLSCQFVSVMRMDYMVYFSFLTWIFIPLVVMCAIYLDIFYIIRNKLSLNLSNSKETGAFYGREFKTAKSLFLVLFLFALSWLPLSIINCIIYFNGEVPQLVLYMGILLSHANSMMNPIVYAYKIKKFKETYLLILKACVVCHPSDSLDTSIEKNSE

Homo sapiens = species on record: Homo sapiens; assay: Selectivity ratio of pKi for human A3AR to pKi for human A1AR
[2] = target: T1, Adenosine receptor A3 (Homo sapiens); assay: Binding affinity to human A3AR expressed in CHO cells membrane at 50 nM incubated for 1 hr by SDS-PAGE analysis; type: cell membranes
[3] = target: T1, Adenosine receptor A3 (Homo sapiens); assay: Binding affinity to human A3AR expressed in granulocytes incubated for 1 hr by flow cytometry analysis; type: cell-based
[4] = target: T1, Adenosine receptor A3 (Homo sapiens); assay: Binding affinity to human A3AR expressed in eosinophil incubated for 1 hr by flow cytometry analysis; type: cell-based

SMILES | Activity [1] | Ratio pKi (Homo sapiens) | Activity [2] | Activity [3] | Activity [4]
C#CCn1c(=O)c2c(nc3cc(OC)ccn32)n(CCCNC(=O)c2ccc(S(=O)(=O)F)cc2)c1=O | Active | – | – | – | –
C#CCOc1ccn2c(c1)nc1c2c(=O)n(CCC)c(=O)n1CCCNC(=O)c1ccc(S(=O)(=O)F)cc1 | Active | > 17 | Active | inactive | Active
C#CCN(CCCn1c(=O)n(CCC)c(=O)c2c1nc1cc(OC)ccn12)C(=O)c1ccc(S(=O)(=O)F)cc1 | Active | > 100 | – | – | –
